Assay results taken from the supplement of paper PMC10307832.

Columns and labels:
Assay in all cases: relative viability (nuclei count vs DMSO), 5 days (fraction); higher = more cells survive
[1] = compound: C1/C(=C\C2=CC=CS2)/C(=O)/C(=C/C3=CC=CS3)/C1 + COc1cccc2cc(-c3nc([C@H]4CC[C@H](C(=O)O)CC4)n4ncnc(N)c34)[nH]c12 [OSI-027] (partner 0.5 µM)
Method in brief: (§1)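 After 5 days of treatment, lung cancer cells in 1536-well plates were fixed and stained in a single step (final 0.05% Triton X-100, 1% formaldehyde, 1 ug/ml Hoechst) and their nuclei counted on 4× images. Treatment had been applied by pin tool the day after seeding as one drug alone or as a fixed anchor-drug dose with five library-drug doses (not always all listed) in √10 steps. Relative viability is the nuclei count of treated wells divided by that of vehicle wells, and values are medians of duplicate plates.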

[2] = compound: C1/C(=C\C2=CC=CS2)/C(=O)/C(=C/C3=CC=CS3)/C1 + C[C@@H](Oc1cc(-c2cnn(C3CCNCC3)c2)cnc1N)c1c(Cl)ccc(F)c1Cl [Crizotinib] (partner 1 µM)
Method in brief: as §1

[3] = compound: C1/C(=C\C2=CC=CS2)/C(=O)/C(=C/C3=CC=CS3)/C1 + Nc1ncn([C@H]2C[C@H](O)[C@@H](CO)O2)c(=O)n1 [Decitabine] (partner 2 µM)
Method in brief: as §1

[4] = compound: C[C@]12O[C@H](C[C@]1(O)CO)n1c3ccccc3c3c4c(c5c6ccccc6n2c5c31)CNC4=O [Lestaurtinib] + CC(=O)c1c(C)c2cnc(Nc3ccc(N4CCNCC4)cn3)nc2n(C2CCCC2)c1=O [Palbociclib] (partner 0.5 µM)
Method in brief: as §1

Cell Line UMC-11 has a relative viability ([1]; first compound 0.2 µM) of 0.474, a relative viability ([1]; first compound 0.6325 µM) of 0.484 and a relative viability ([1]; first compound 20 µM) of 0.45. The relative viability ([2]; first compound 0.2 µM) was 0.62, the relative viability ([2]; first compound 0.6325 µM) was 0.685 and the relative viability ([2]; first compound 2 µM) was 0.687. For the same cell line, the relative viability ([2]; first compound 20 µM) was 0.571, the relative viability ([3]; first compound 0.2 µM) was 0.752 and the relative viability ([3]; first compound 0.6325 µM) was 0.653. For the same cell line, the relative viability ([3]; first compound 2 µM) was 0.637, the relative viability ([3]; first compound 6.325 µM) was 0.513 and the relative viability ([3]; first compound 20 µM) was 0.515. It also gave a relative viability ([4]; first compound 0.005 µM) of 0.344, a relative viability ([4]; first compound 0.01581 µM) of 0.294 and a relative viability ([4]; first compound 0.05 µM) of 0.33. For the same cell line, the relative viability ([4]; first compound 0.1581 µM) was 0.215 and the relative viability ([4]; first compound 0.5 µM) was 0.198.
